Assay results: paper PMC8053501 (Diabetes, Metabolic Syndrome and Obesity: Targets and …, 2021)
Entries after “also recorded” stand apart in the source; their conditions may differ. Read-outs that look alike come from different tables or passages of the source. Blank lines part the entries; values can stand above or below the molecule they belong to.

Assays:
[1] = test system: diabetes mellitus patients; test: Acute kidney injury; format: in vivo, human; details: for Association with AKI, Adjusted (95% CI): multivariate; for Association with AKI, Adjusted (95% CI) / Association with AKI, Unadjusted (95% CI): metformin as reference; for Association with AKI compared to control drug metformin, in words: multivariate analysis; for Events During the 90 days (AKI): primary endpoint, first 90 days, patients above 55 years; for Total endpoint (AKI events): primary plus secondary endpoint; for Events at secondary end (AKI): secondary endpoint, after 90 days of hospital admission; for Total Percent (incidence rate of AKI at the end of the study): share of the 4966 total outcomes
[2] = for Drug concentration, time course: normal mice; for Drug concentration, time course / Cmax / Tmax / t1/2 / AUC: oral gavage, 3mg/kg; for Cmax / Tmax / t1/2 / AUC / Tmax determined from the drug concentration in kidney and plasma (and liver): mouse; for AUC: AUC for 24 hr; for Tmax determined from the drug concentration in kidney and plasma (and liver): tissue not separated
in vivo = details: male, ICR, mouse, po
[3] = Endpoint Diagnosis with 1047 Outcome
[4] = Secondary Diagnosis with 3919 Outcomes

Drug concentration, time course ([2]; Kidney, 0h): 0
Drug concentration, time course ([2]; Kidney, 3h): 8130
Drug concentration, time course ([2]; Kidney, 6h): 5630
Drug concentration, time course ([2]; Kidney, 9h): 2390
Drug concentration, time course ([2]; Kidney, 12h): 450
Drug concentration, time course ([2]; Kidney, 15h): 30
Drug concentration, time course ([2]; Kidney, 18h): 0
Drug concentration, time course ([2]; Kidney, 21h): 0
Drug concentration, time course ([2]; Kidney, 24h): 0
Drug concentration, time course ([2]; Liver, 0h): 0
Drug concentration, time course ([2]; Liver, 6h): 7460
Drug concentration, time course ([2]; Liver, 9h): 4550
Drug concentration, time course ([2]; Liver, 12h): 1650
Drug concentration, time course ([2]; Liver, 15h): 340
Drug concentration, time course ([2]; Liver, 18h): 80
Drug concentration, time course ([2]; Liver, 21h): 0
Drug concentration, time course ([2]; Liver, 24h): 0
Drug concentration, time course ([2]; Plasma, 0h): 0
Drug concentration, time course ([2]; Plasma, 3h): 360
Drug concentration, time course ([2]; Plasma, 6h): 70
Drug concentration, time course ([2]; Plasma, 9h): 30
Drug concentration, time course ([2]; Plasma, 12h): 0
Drug concentration, time course ([2]; Plasma, 15h): 0
Drug concentration, time course ([2]; Plasma, 18h): 0
Drug concentration, time course ([2]; Plasma, 21h): 0
Drug concentration, time course ([2]; Plasma, 24h): 0
Molecule: CC1=C(C(=O)O)N2C(=O)[C@@H](NC(=O)[C@H](N)c3ccccc3)[C@H]2SC1 [Cephalexin, cephalexin]
Association with AKI, Adjusted (95% CI) [1, 3]: 1.52 (1.31–2.16)
Association with AKI, Adjusted (95% CI) [1, 4]: 1.82 (1.31–2.25)
Association with AKI compared to control drug metformin, in words [1]: increased rate of AKI; also recorded: higher risk for AKI
Events During the 90 days (AKI) [1]: 50
Total endpoint (AKI events) [1]: 333
Events at secondary end (AKI) [1]: 283
Total Percent (incidence rate of AKI at the end of the study) [1]: 6.71%

Tmax (in vivo): 1 h
Tmax (in vivo; 3 mg/kg): 1 h
half-life (in vivo; 3 mg/kg, t1/2): 2.8 h
Molecule: CCOc1ccc(Cc2cc([C@@H]3O[C@H](CO)[C@@H](O)[C@H](O)[C@H]3O)ccc2Cl)cc1 [Dapagliflozin, dapagliflozin]
Association with AKI, Unadjusted (95% CI) [1, 3]: 0.94 (0.71–1.25)
Association with AKI, Adjusted (95% CI) [1, 3]: 0.84 (0.72–1.32)
Association with AKI, Unadjusted (95% CI) [1, 4]: 0.81 (0.63–1.33)
Association with AKI, Adjusted (95% CI) [1, 4]: 0.93 (0.58–1.24)
Events During the 90 days (AKI) [1]: 73
Total endpoint (AKI events) [1]: 298
Events at secondary end (AKI) [1]: 225
Total Percent (incidence rate of AKI at the end of the study) [1]: 6%
Total Percent (incidence rate of AKI at the end of the study) ([1]; listed as dapagliflozin): 6.0%

More lines, now with the values behind:

Molecule: Cc1ccc([C@@H]2O[C@H](CO)[C@@H](O)[C@H](O)[C@H]2O)cc1Cc1ccc(-c2ccc(F)cc2)s1 [Canagliflozin, canagliflozin]
Association with AKI, Unadjusted (95% CI) [1, 3]: 0.85 (0.67–1.21)
Association with AKI, Adjusted (95% CI) [1, 3]: 1.06 (0.68–1.34)
Association with AKI, Unadjusted (95% CI) [1, 4]: 0.89 (0.61–1.25)
Association with AKI, Adjusted (95% CI) [1, 4]: 1.06 (0.91–1.42)
Events During the 90 days (AKI) [1]: 66
Total endpoint (AKI events) [1]: 267
Events at secondary end (AKI) [1]: 201
Total Percent (incidence rate of AKI at the end of the study) [1]: 5.38%
Cmax ([2]; Kidney): 3765 ng/mL
Tmax ([2]; Kidney): 1 h
t1/2 ([2]; Kidney): 2.4 h
AUC ([2]; Kidney): 12,100 ng/mL
Cmax ([2]; Liver): 3217 ng/mL
Tmax ([2]; Liver): 1 h
t1/2 ([2]; Liver): 2.8 h
AUC ([2]; Liver): 10,100 ng/mL
Cmax ([2]; Plasma): 542 ng/mL
Tmax ([2]; Plasma): 1 h
t1/2 ([2]; Plasma): 2.1 h
AUC ([2]; Plasma): 1432 ng/mL
Tmax determined from the drug concentration in kidney and plasma (and liver) [2]: 1 h
Drug concentration, time course ([2]; Kidney, 0h): 0
Drug concentration, time course ([2]; Kidney, 3h): 5000
Drug concentration, time course ([2]; Kidney, 6h): 4300
Drug concentration, time course ([2]; Kidney, 9h): 900
Drug concentration, time course ([2]; Kidney, 12h): 300
Drug concentration, time course ([2]; Kidney, 15h): 0
Drug concentration, time course ([2]; Kidney, 18h): 0
Drug concentration, time course ([2]; Kidney, 21h): 0
Drug concentration, time course ([2]; Kidney, 24h): 0
Drug concentration, time course ([2]; Liver, 0h): 0
Drug concentration, time course ([2]; Liver, 3h): 4700
Drug concentration, time course ([2]; Liver, 6h): 3900
Drug concentration, time course ([2]; Liver, 9h): 600
Drug concentration, time course ([2]; Liver, 12h): 100
Drug concentration, time course ([2]; Liver, 15h): 0
Drug concentration, time course ([2]; Liver, 18h): 0
Drug concentration, time course ([2]; Liver, 21h): 0
Drug concentration, time course ([2]; Liver, 24h): 0
Drug concentration, time course ([2]; Plasma, 0h): 0
Drug concentration, time course ([2]; Plasma, 3h): 500
Drug concentration, time course ([2]; Plasma, 6h): 300
Drug concentration, time course ([2]; Plasma, 9h): 50
Drug concentration, time course ([2]; Plasma, 12h): 0
Drug concentration, time course ([2]; Plasma, 15h): 0
Drug concentration, time course ([2]; Plasma, 18h): 0
Drug concentration, time course ([2]; Plasma, 21h): 0
Drug concentration, time course ([2]; Plasma, 24h): 0

Molecule: insulin
Association with AKI, Unadjusted (95% CI) [1, 3]: 2.26 (1.95–2.64)
Association with AKI, Adjusted (95% CI) [1, 3]: 2.36 (1.81–2.87)
Association with AKI, Unadjusted (95% CI) [1, 4]: 2.42 (1.25–2.61)
Association with AKI, Adjusted (95% CI) [1, 4]: 2.73 (2.28–2.90)
Association with AKI compared to control drug metformin, in words [1]: increased rate of AKI; also recorded: higher risk for AKI
Total endpoint (AKI events) [1]: 348
Events at secondary end (AKI) [1]: 290
Cmax ([2]; Kidney): 6574 ng/mL
Tmax ([2]; Kidney): 1 h
AUC ([2]; Kidney): 26,742 ng/mL
Cmax ([2]; Liver): 6087 ng/mL
Tmax ([2]; Liver): 1 h
AUC ([2]; Liver): 19,851 ng/mL
Cmax ([2]; Plasma): 879 ng/mL
Tmax ([2]; Plasma): 1 h
AUC ([2]; Plasma): 2985 ng/mL
Tmax determined from the drug concentration in kidney and plasma (and liver) [2]: 1 h
Drug concentration, time course ([2]; Kidney, 0h): 0
Drug concentration, time course ([2]; Kidney, 3h): 14,200
Drug concentration, time course ([2]; Kidney, 6h): 10,400
Drug concentration, time course ([2]; Kidney, 9h): 6400
Drug concentration, time course ([2]; Kidney, 12h): 3700
Drug concentration, time course ([2]; Kidney, 15h): 500
Drug concentration, time course ([2]; Kidney, 18h): 0
Drug concentration, time course ([2]; Kidney, 21h): 0
Drug concentration, time course ([2]; Kidney, 24h): 0
Drug concentration, time course ([2]; Liver, 0h): 0
Drug concentration, time course ([2]; Liver, 3h): 9400
Drug concentration, time course ([2]; Liver, 6h): 5050
Drug concentration, time course ([2]; Liver, 9h): 2380
Drug concentration, time course ([2]; Liver, 12h): 370
Drug concentration, time course ([2]; Liver, 15h): 0
Drug concentration, time course ([2]; Liver, 18h): 0
Drug concentration, time course ([2]; Liver, 21h): 0
Drug concentration, time course ([2]; Liver, 24h): 0
Drug concentration, time course ([2]; Plasma, 0h): 0
Drug concentration, time course ([2]; Plasma, 3h): 640
Drug concentration, time course ([2]; Plasma, 6h): 450
Drug concentration, time course ([2]; Plasma, 9h): 310
Drug concentration, time course ([2]; Plasma, 12h): 50
Drug concentration, time course ([2]; Plasma, 15h): 0
Drug concentration, time course ([2]; Plasma, 18h): 0
Drug concentration, time course ([2]; Plasma, 21h): 0
Drug concentration, time course ([2]; Plasma, 24h): 0

Molecule: CN(C)C(=N)N=C(N)N [Metformin, metformin]
Association with AKI, Unadjusted (95% CI) [1, 3]: 1
Association with AKI, Adjusted (95% CI) [1, 3]: 1
Association with AKI, Unadjusted (95% CI) [1, 4]: 1.0 (Reference)
Association with AKI, Adjusted (95% CI) [1, 4]: 1.0 (Reference)
Events During the 90 days (AKI) [1]: 69
Total endpoint (AKI events) [1]: 330
Events at secondary end (AKI) [1]: 261
Total Percent (incidence rate of AKI at the end of the study) [1]: 6.64%
Tmax (in vivo): 0.5 h
Tmax (in vivo; 3 mg/kg): 0.5 h
